Results on one compound are retold here after article PMC9261792 (Journal of Food and Drug Analysis, 2021).

For this experiment, the target named is T1, hSGLT1 (Homo sapiens, UniProt P13866).
T1 sequence (P13866 1-664): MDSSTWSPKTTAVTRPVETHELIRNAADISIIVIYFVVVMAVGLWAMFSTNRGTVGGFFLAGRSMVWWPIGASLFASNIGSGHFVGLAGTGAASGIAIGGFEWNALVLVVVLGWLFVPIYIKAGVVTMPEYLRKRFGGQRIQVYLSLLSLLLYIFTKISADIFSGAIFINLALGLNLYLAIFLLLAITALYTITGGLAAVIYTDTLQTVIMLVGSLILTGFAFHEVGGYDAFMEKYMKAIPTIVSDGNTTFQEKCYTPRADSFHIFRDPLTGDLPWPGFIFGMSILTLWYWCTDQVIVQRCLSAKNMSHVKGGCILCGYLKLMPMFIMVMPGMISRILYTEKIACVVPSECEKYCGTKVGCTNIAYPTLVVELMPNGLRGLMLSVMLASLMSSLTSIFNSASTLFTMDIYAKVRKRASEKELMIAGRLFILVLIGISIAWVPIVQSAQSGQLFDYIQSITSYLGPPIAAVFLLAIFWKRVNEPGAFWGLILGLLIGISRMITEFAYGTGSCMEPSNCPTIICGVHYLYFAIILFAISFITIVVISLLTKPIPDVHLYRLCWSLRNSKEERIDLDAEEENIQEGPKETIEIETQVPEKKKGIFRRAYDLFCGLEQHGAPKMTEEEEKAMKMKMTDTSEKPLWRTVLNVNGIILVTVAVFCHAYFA
Briefly: 1-NBDG uptake inhibition in COS-7 cells expressing hSGLT1, single dose […]. In kind it is cell-based. Conditions: COS-7, read-out: % Uptake via / hSGLT1.

Turning to `O=C(/C=C/c1ccc(O)cc1)OC[C@H]1O[C@@H](Oc2c(-c3ccc(O)cc3)oc3cc(O)cc(O)c3c2=O)[C@H](O)[C@@H](O)[C@@H]1O` [compound 15, Tiliroside], the activity at 50 µM was determined as 33.1 ± 0.85%.
